Here are results for two compounds from article PMC7867026, “Selina-1,3,7(11)-trien-8-one and Oxidoselina-1,3,7(11)-trien-8-one from Eugenia uniflora Leaf Essential Oil and Their Cytotoxic Effects on Human Cell Lines” (Molecules, 2021).

Some results are limits rather than exact numbers.

In general, IC50 refers to the concentration needed to halve the response being measured. One may read the GI50 as the concentration that inhibits growth by half.

Data set [1] concerns IMR90 (human lung fibroblast). The data set can be described thus: MTT cytotoxicity assay, IMR90. It is filed as cell-based. As to conditions: Homo sapiens, IMR-90, IMR90, 48 h; for IC50: 10–500 μM, read-out: IC50 (cell viability); for GI50: read-out: GI50 (antiproliferative effect). On the procedure:
(§1) The in vitro cytotoxic effect of 1 and 2 compounds were analyzed in relation to A549 (lung adenocarcinoma epithelial cells—BCRJ code: 0033), HepG2 (human hepatoma carcinoma cells—BCRJ code: 0291), and IMR90 (human lung fibroblast—BCRJ code: 0118) cell lines using MTT (3-(4,5-dimethylthiazol-2-yl)-2,5-diphenyl tetrazolium bromide) (Sigma-Aldrich, COD—M5655) assay. All cell lines were maintained in Dulbecco’s Modified Eagle’s Medium/Nutrient Mixture F-12 Ham (Sigma-Aldrich, COD—D8900), with added 10% fetal bovine serum (FBS, Gibco, COD—16000044) and 100 IU penicillin/100 µg streptomycin (Sigma-Aldrich, COD—P4333). The cell lines were grown in a humidified incubator at 37 °C containing 5% CO2. Briefly, the cells were seeded into 96-well plates at a density of 1 × 10^4 cells/well (HepG2 and A549), 5 × 10^3 cells/well (IMR90), 100 μL/well, and after 24 h, the cells were treated with 100 μL of serial concentrations (10–500 μM) of compounds 1 and 2 for 48 h. The stock solution of extracts contained 5% of dimethyl sulfoxide (DMSO) at a final concentration of 0.2% in cell medium for all in vitro assays. The IC50, GI50, and LC50 parameters were performed in accordance with the method described by do Carmo (2018), in which IC50 is the concentration of the agent that inhibits growth by 50%, calculated as (T/C) × 100 = 50, where T = number of cells at time t of treatment; C = control cells at time t of treatment; GI50 is the concentration of the agent that inhibits growth by 50% relative to untreated cells, calculated as ((T − T0)/(C − T0)) × 100 = 50, where T and C are the number of treated and control cells, respectively, at time t of treatment, and T > T0 where T0 is the number of cells at time zero; LC50 is the concentration of the agent that results in a net loss of 50% cells relative to the number at the start of treatment, calculated as ((T − T0)/T0) × 100 = −50, where T < T0. The experiments were conducted in quadruplicate on three different days to assure the reproducibility of the generated data.
For orientation: Formazan colour is commonly taken as a measure of viable cells.

Data set [2] is described as follows: MTT cytotoxicity assay, IMR90. Type of data set: cell-based, human. As to conditions: human, IMR90 lung fibroblasts, IMR90, 48 h, read-out: LC50 (cell death). The method, then:
as §1

The test system of data set [3] is A549 (lung adenocarcinoma epithelial cells). The data set can be described thus: MTT cytotoxicity assay, A549. It is filed as cell-based, human. As to conditions: Homo sapiens, A549, 48 h; for IC50: 10–500 μM, read-out: IC50 (cell viability); for GI50: read-out: GI50 (antiproliferative effect). On the procedure: as §1
Data set [4] is described as follows: MTT cytotoxicity assay, A549. It is filed as cell-based, human. As to conditions: human, A549 lung adenocarcinoma epithelial cells, A549, 48 h. The method, then:
as §1

Data set [5] can be described thus: DPPH free-radical scavenging assay. As to conditions: result in words; figure values in mg AAE/100 g not given. Type of data set: biochemical. The method, then: (§2) The free-radical scavenging activity of 1 and 2 in relation to the 2,2-diphenyl-1-picrylhydrazyl (DPPH) radical was measured using the colorimetric method described by Brand-Williams (1995), and the results are expressed in mg of ascorbic acid equivalent per 100 g of material (AAE/100 g). To evaluate the capacity of hydrogen atom transfer (HAT) of the isolated compounds, male Wistar rat brain homogenate was used as substrate for the production of thiobarbituric acid reactive substances (TBARS) produced by Fe^2+-induced oxidation undertaken at 37 °C, following the experimental conditions described elsewhere. The inhibition of lipid peroxidation was expressed as % of inhibition. The animal protocol was approved by the Ethics Committee (UEPG, protocol 47/2017).
A general note: The DPPH test is a chemical assay of radical scavenging.

Another data set relates to A549 cancer cells. The experiment in a line: Intracellular ROS measurement (DCFH-DA fluorescence), A549. It is filed as cell-based, human. As to conditions: A549, 10, 50 and 100 μM (legend; method says μg/mL), 1 h. On the procedure: (§3) In order to assess the in vitro antioxidant/oxidant potential of 1 and 2, intracellular ROS generation was measured using a fluorescence technique as described by Carmo (2019). Briefly, A549 cancer cells (6 × 10^4/well) and IMR90 normal cells (2 × 10^4/well) were exposed to concentrations of 10, 50, and 100 μg/mL of 1 and 2 compounds, culture medium (negative control), and 15 μmol/L H2O2 (positive control), for 1 h in DCFH-DA solution ([…]), at 37 °C and 5% CO2. Subsequently, cells were washed with PBS and a H2O2 solution (15 μmol/L) added for recording of fluorescence. Intracellular fluorescence intensity of cells was measured at an excitation wavelength of 485 nm and at an emission wavelength of 538 nm. The assays were performed in quadruplicate on three different days.

Data set [6] relates to Wistar rat brain homogenate. The experiment in a line: Inhibition of lipid peroxidation (TBARS, Fe2+-induced oxidation) in rat brain homogenate. It is filed as biochemical. As to conditions: at 40 mg/L. The method, then: as §2
The subject of the next data set is IMR90 normal cells. The experiment in a line: Intracellular ROS measurement (DCFH-DA fluorescence), IMR90. It is filed as cell-based, human. As to conditions: IMR90, 10, 50 and 100 μM (legend; method says μg/mL), 1 h. The method, then: as §3
For data set [7], the system named is HepG2 (human hepatoma carcinoma cells). The data set can be described thus: MTT cytotoxicity assay, HepG2. Type of data set: cell-based. As to conditions: Homo sapiens, HepG2, 48 h; for IC50: 10–500 μM, read-out: IC50 (cell viability); for GI50: read-out: GI50 (antiproliferative effect). On the procedure:
as §1

Data set [8] is described as follows: MTT cytotoxicity assay, HepG2. It is filed as cell-based, human. As to conditions: human, HepG2 hepatoma carcinoma cells, HepG2, 48 h. On the procedure: as §1

In the case of `CC1=CC=C[C@]2(C)CC(=O)C(=C(C)C)C[C@H]12` (relative stereo) [Compound 1, selina-1,3,7(11)-trien-8-one], the IC50 in data set [1], in data set [3] and in data set [7] was above 500 µM throughout. The GI50 is 185 µM in [1], 591 µM in data set [3] and 289 µM in data set [7]. In data set [2], the CC50 at 48 h was above 500 µM. Besides, the LC50 (concentration causing 50% cell death) at 48 h in data set [4] and in data set [8] was above 500 µM each time. Besides, in [5], the “free-radical scavenging activity (DPPH assay)” value is “insignificant free-radical scavenging activity”. Besides, the “intracellular ROS generation” value in the data set with A549 cancer cells and in the data set on IMR90 normal cells was “inducing reactive oxygen species (ROS) generation” in each case. In addition, the “inhibition of lipoperoxidation in rat brain homogenate” value in data set [6] is given as “did not show inhibitory activity”.
For `CC1=COC=C[C@]2(C)CC(=O)C(=C(C)C)C[C@H]12` (relative stereo) [Compound 2, oxidoselina-1,3,7(11)-trien-8-one], the results for the IC50 in [1], in [3] and in data set [7] were above 500 µM, above 500 µM and 525 µM, respectively. The 50% growth inhibitory concentration (GI50) in data set [1] amounted to 14.9 µM; in [3] it was 359 µM; in data set [7] it was 97.5 µM. The CC50 at 48 h in data set [2] is above 500 µM. In data set [5], the “free-radical scavenging activity (DPPH assay)” value is reported as “insignificant free-radical scavenging activity”. Besides, the “intracellular ROS generation” value in the data set on A549 cancer cells and with IMR90 normal cells was “inducing reactive oxygen species (ROS) generation” throughout. Further, the “inhibition of lipoperoxidation in rat brain homogenate” value in data set [6] was “did not show inhibitory activity”.
